Measurements from patent US9221800B2, “Isoxazole treatments for diabetes” (The Board of Regents of the University of Texas System, priority 2011, dated 2015).

Columns and labels:
[1] = tested on: human islets; experiment: Gene expression by quantitative RT-PCR in cultured human islets; format: cell-based
Description: MIN6 cells were cultured in DMEM (Gibco), containing 25 mM glucose, 10% fetal bovine serum, 10 mM Hepes pH 7.4, 10.2 mM L-glutamine, […] sodium pyruvate, 2.5 mM β-mercaptoethanol, 100 U/ml penicillin and 100 μg/ml streptomycin at 37° C. in 10% CO2. Human islets were obtained from the ICR Basic Science Islet Distribution and from the University of Alabama, Birmingham Islet Resource Facility and were cultured in RPMI 1640 with 11 mM glucose for up to 1 year. The medium was changed twice weekly and the islets were subcultured when they reached 90% confluence. For Isx treatments, cells were incubated in medium containing either Isx or the equivalent volume of DMSO vehicle (0.04%). To measure GSIS, cells were placed in Krebs-Ringer bicarbonate/Hepes containing 0.1% bovine serum albumin and 2 mM glucose for 2 h, and stimulated for 15 min with 20 mM glucose, a 1× amino-acid mixture (concentrations as in DMEM), or 50 nM Exendin-4. U0126 (10 μM), nifedipine (3 μM), BAPTA (10 μM), wortmanin (0.5 μM) or FK506 (0.1 μM) were added for 1-24 h as indicated.
Total RNA was extracted from human islet preparations with TRI reagent according to manufacturer's protocol (Ambion). cDNA was prepared from total RNA by a mixture of random hexamer- and oligo-dT-primed reverse transcription (iScript Biorad). The expression of insulin and glucagon relative to 18S RNA was evaluated by TaqMan assays (Applied Biosystems). Relative expression of pancreatic factors was determined using Power SYBR Green PCR Master Mix (Applied Bio systems). Primer sequences for qRT-PCR are in STable 1. SYBR Green and TaqMan probe-based PCR was performed using the ABI 7500 DNA Sequence Detection System with standard fluorescent chemistries and thermal cycling conditions specified by the manufacturer: 50° C. for 2 min, 95° C. for 10 min for one cycle and an additional 40 cycles at 95° C. for 15 sec, and then 58° C. for 1 min.

[2] = tested on: MIN6 cells; experiment: Quantitative RT-PCR of endogenous insulin gene expression in MIN6 cells; format: cell-based, mouse
Description: FIGS. 2A-E. Isx (LSH-1) activates insulin expression and improves β cell function in MIN6 cells. (FIG. 2A) Dose-response relationship of MIN6 cells treated with 5-80 μM Isx for 24 h or DMSO (0.08%—similar to the highest concentration of Isx). Whole cell lysates (40 μg) were subjected to immunoblotting using antibodies against BETA2NeuroD1, MafA, PDX-1, pERK1/2 (pT183/pY185), acetylated histones ACH4-K5K8K12K16 and ACH3K9 and total histone H3. (FIG. 2B) Quantitative RT-PCR of murine insulin1 and insulin2 gene expression in MIN6 cells treated with Isx for 24 h as in FIG. 2A. (FIG. 2C) GSIS in 15 min from MIN6 cells pretreated with Isx or vehicle for 48 h in the presence or absence of the MEK1/2 inhibitor U0126 for 24 h. (FIG. 2D) Insulin content measured by ELISA in MIN6 cells treated with Isx for 24 or 48 h. […]
Total RNA was extracted from human islet preparations with TRI reagent according to manufacturer's protocol (Ambion). cDNA was prepared from total RNA by a mixture of random hexamer- and oligo-dT-primed reverse transcription (iScript Biorad). The expression of insulin and glucagon relative to 18S RNA was evaluated by TaqMan assays (Applied Biosystems). Relative expression of pancreatic factors was determined using Power SYBR Green PCR Master Mix (Applied Bio systems). […]

[3] = tested on: rat insulin 1 promoter-luciferase reporter (pGL3-rIns -410, +1); experiment: Insulin promoter luciferase reporter assay in HEK293 cells; format: cell-based
Description: HEK 293 cells (0.15×10^6 cells) in triplicate were transfected with the pGL3-rIns reporter construct (0.1 μg/well) (Stratagene) and cotransfected with 0.5 μg/well of either empty vector (pcDNA3.1) or vectors encoding BETA2:myc, MafA:myc or PDX-1:myc using Lipofectamine 2000 (Invitrogen). After 24 h, cells were stimulated with 20 μM Isx or DMSO for another 24 h. Luciferase activity was measured using the dual luciferase reporter system (Promega) with Renilla Luciferase as an internal control.

[4] = tested on: BETA2; experiment: Acetylation of BETA2 (anti-myc immunoprecipitates, anti-acetyl lysine immunoblot); format: cell-based; details: cells overexpressing myc-BETA2 (FIG. 3C)
Description: FIGS. 3A-E. Isx (LSH-1) activates transcription factors that regulate insulin gene expression and insulin production. (FIG. 3A) Insulin promoter reporter activity in HEK293 cells transfected with BETA2, MafA, PDX-1, or (FIG. 3B) WT MafA or mutant MafA, treated with Isx or vehicle for 24 h. (FIG. 3C) Immunoblotting of anti-myc immunoprecipates using anti-acetyl lysine (Ac-K) and anti-BETA2 from cells overexpressing myc-BETA2. (FIG. 3D) Chromatin immunoprecipitation (ChIP) analysis of MafA and BETA2 (FIG. 3E) association with the insulin promoter in MIN6 cells in response to a 10-min glucose stimulation.

[5] = tested on: HDAC; experiment: HDAC activity in nuclear extracts of treated MIN6 cells; format: cell-based, mouse; details: 24 h treatment, TSA 2 μM positive control (FIG. 4B)
Description: (§1) The histone acetyl transferase and deacetylase activities were measured in 50 μg of nuclear protein using the HAT and HDAC activity colorimetric assay kits from Biovision Biotechnology according to manufacturer's recommendations.

[6] = tested on: HAT; experiment: HAT activity in nuclear extracts of treated MIN6 cells; format: cell-based, mouse
Description: as §1

[7] = molecular target: T1, PCAF (Homo sapiens, UniProt Q92831); experiment: HAT activity of HATs expressed in 293 cells; format: cell-based; details: combination of ERK2 expression and Isx, 24 h (FIG. 8)
T1 construct: expressed in transfected cells; host or cells: HEK293
Description: (FIG. 8A) Combined effect of Isx treatment for 24 h and WT ERK2 (W) or kinase dead K52R ERK2 (R) on the HAT activities of p300, and (FIG. 8B) other HATs, CBP, PCAF and GCN5-L2, transfected in HEK293 cells.

[8] = human islets in culture for 6 months, Isx for 1-2 days (40 μM, FIG. 1A)
[9] = islets in culture for one year, 40 μM Isx 2-8 days

T1 sequence (Q92831 whole entry, species assumed): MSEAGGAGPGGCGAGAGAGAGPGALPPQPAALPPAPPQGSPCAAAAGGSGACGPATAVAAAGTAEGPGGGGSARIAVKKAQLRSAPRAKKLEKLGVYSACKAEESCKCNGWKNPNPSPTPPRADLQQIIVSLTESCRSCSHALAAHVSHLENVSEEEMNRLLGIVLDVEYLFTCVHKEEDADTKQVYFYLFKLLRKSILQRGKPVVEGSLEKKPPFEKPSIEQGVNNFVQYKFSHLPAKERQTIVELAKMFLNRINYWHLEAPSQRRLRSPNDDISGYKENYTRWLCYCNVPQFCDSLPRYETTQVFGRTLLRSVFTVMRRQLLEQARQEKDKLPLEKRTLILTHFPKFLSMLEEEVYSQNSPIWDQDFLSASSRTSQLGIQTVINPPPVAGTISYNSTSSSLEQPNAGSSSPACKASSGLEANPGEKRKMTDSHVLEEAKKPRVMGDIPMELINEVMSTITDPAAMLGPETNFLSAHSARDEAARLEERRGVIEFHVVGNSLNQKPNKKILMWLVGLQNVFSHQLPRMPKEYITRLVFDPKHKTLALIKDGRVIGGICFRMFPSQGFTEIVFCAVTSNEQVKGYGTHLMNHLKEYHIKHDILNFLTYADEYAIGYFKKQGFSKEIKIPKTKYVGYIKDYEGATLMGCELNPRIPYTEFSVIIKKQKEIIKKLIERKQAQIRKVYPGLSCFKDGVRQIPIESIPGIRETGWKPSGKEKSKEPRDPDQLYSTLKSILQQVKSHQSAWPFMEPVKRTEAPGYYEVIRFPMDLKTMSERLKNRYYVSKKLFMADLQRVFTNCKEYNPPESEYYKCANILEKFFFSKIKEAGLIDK

SMILES: O=C(NC1CC1)c1cc(-c2cccs2)on1 [Isx, N-cyclopropyl-5-(thiophen-2-yl)isoxazole-3-carboxamide]
- glucagon mRNA decrease [1, 8]: ~80%
- preproinsulin mRNA [1, 8]: large increase
- PCNA and Oct4 mRNA expression ([1]; islets in culture for one year): Neither PCNA, an indicator of proliferation, nor Oct4, a factor associated with stem cells, showed consistent or substantial changes in mRNA expression
- increases in PDX-1, the Hnfs, and Isl1 mRNA [1, 9]: relatively small
- increases in the other factors (mRNA; other than PDX-1, the Hnfs, Isl1) [1, 9]: more than 10 fold
- Preproinsulin mRNA increase ([1]; islets in culture for one year, after several days of Isx exposure (FIG. 1D)): ≥ 50 fold
- Preproinsulin mRNA increase ([1]; islets in culture for one year, at 24 h (FIG. 1D)): 10 fold
- expression of glucokinase and Glut2 ([1]; islets in culture for one year, peaking after 4 days of exposure): increased markedly
- increase in preproinsulin mRNA ([2]; Isx 24 h (FIG. 2B)): ≤ 4 fold
- concentration for optimal activation of endogenous insulin gene expression ([2]; MIN6 cells (FIG. 12)): 20 µM
- increase of the activity of PDX-1 (insulin gene reporter) by Isx ([3]; 20 μM Isx 24 h): two-fold or less
- Insulin gene reporter activity increase by either BETA2 or MafA in the presence of Isx ([3]; 20 μM Isx 24 h (FIG. 3A, FIG. 7)): ≥ 4 fold
- acetylation of BETA2 [4]: more strongly than the HDAC inhibitor sodium butyrate
- HDAC activity in MIN6 cells [5]: not affected
- HAT activity increase ([6]; nuclear extracts from Isx-treated MIN6 cells, 24 h (FIG. 4C)): ~2 fold
- HAT activity in nuclear extracts of MIN6 cells expressing p300 ([6]; over and above that from expressed p300): increased
- PCAF HAT activity [7]: not
